# Test results as given in patent US20260317310A1, “BENZO SIX-MEMBERED HETEROCYCLIC GSPT1 PROTEIN DEGRADATION AGENT AND USE THEREOF” (China Pharmaceutical University, priority 2023, published 2026).
# “Also recorded” adds a separate entry of the source.
# How the values were obtained:
# [1] = tested on: 22RV1 xenograft; experiment: In vivo pharmacodynamic study in 22RV1 prostate cancer xenograft mouse model; set-up: species or system 22RV1 cells in BABL/c Nude mouse
# Protocol: The 22RV1 cells (Cell Bank, Chinese Academy of Sciences) used in this experiment were cultured in a 1640 culture medium supplemented with 10% FBS in an incubator containing CO2 at 37° C. Before the cells were continuously sub-cultured to the tenth generation, 22RV1 cells in the logarithmic growth phase were used, and the cell concentration was adjusted to 5×10^7 cells/mL with a serum-free culture medium. Each BABL/c Nude mouse was inoculated with […] of the cell suspension by subcutaneous injection on the right dorsal side (near the axilla) under sterile conditions. When the mean tumor volume of the tumor-bearing mice reached approximately 50-100 mm^3, the mice were randomly divided into 4 groups of 8, with the tumor volume in each group being roughly the same. The day of grouping and administration was defined as day 0. The animals in each treatment group were given a compound once daily by oral gavage at 60 mg/kg.
# The body weight and tumor volume of the animals were measured every other day.
# (§1) Experimental indicator: The anti-tumor efficacy of the compounds was evaluated using the relative tumor growth inhibition rate (TGI). Tumor weight TGI (%)={1−[(final average tumor weight of experimental group)/(final average tumor weight of control group of tumor-bearing mice without administration)]}×100%.
# [2] = tested on: MV411 xenograft; experiment: In vivo pharmacodynamic study in MV411 acute myeloid leukemia xenograft mouse model; set-up: species or system human leukemia cells in BABL/c Nude mouse
# Protocol: (§2) The human leukemia cells MV411 (Cell Bank, Chinese Academy of Sciences) used in this experiment were cultured in an IMDM culture medium supplemented with 10% FBS in an incubator containing CO2 at 37° C. Before the cells were continuously sub-cultured to the tenth generation, MV411 cells in the logarithmic growth phase were used, and the cell concentration was adjusted to 1×10^8 cells/mL with a serum-free culture medium. Each BABL/c Nude mouse (Jiangsu GemPharmatech Co., Ltd., female, 4-6 weeks old, 14-16 g) was inoculated with […] of the cell suspension by subcutaneous injection on the right dorsal side (near the axilla) under sterile conditions. When the mean tumor volume of the tumor-bearing mice reached approximately 100 mm^3, the mice were randomly divided into groups, with the tumor volume in each group being roughly the same. The day of grouping and administration was defined as day 0. The animals in each treatment group were given a compound once daily by oral gavage at 15 mg/kg, 30 mg/kg, or 60 mg/kg. The body weight and tumor volume of the animals were measured every other day.
# as §1, with “administration)]}×100%. Tumor volume TGI (%)=[1−relative tumor volume of experimental group/relative tumor volume of control group of tumor-bearing mice without administration]×100%.” for “administration)]}×100%.”
# [3] = Body weight in MV411 xenograft mice; format: in vivo, BABL/c Nude mouse; details: A-10 15, 30, 60 mg/kg, A-42 60 mg/kg, oral
# Protocol: as §2
# [4] = molecular target: T1, GSPT1 (Homo sapiens, UniProt P15170); experiment: Degradation of GSPT1 in KG-1 cells (immunoblot, 200 nM, 4 h); format: cell-based; set-up: endogenous in cells; host or cells: KG-1; details: FIGS. 1 and 2
# Protocol: KG-1 cells (ATCC) were grown in an IMDM culture medium (containing 20% FBS). After centrifugation and counting, the cell concentration was adjusted. The cells were plated onto 6-well plates at 10^6 cells/well, with 1350 μL per well. 150 μL of DMSO and the test compounds of the present disclosure (compound concentration: 200 nM) were added. The plates were incubated in an incubator at 37° C. with 5% CO2 for 4 hours. The cells were centrifuged, and the culture medium was discarded. PBS was added to wash the cells and then discarded. Whole cell lysates were prepared using a protease inhibitor cocktail (100×, Fude Biological), a protein phosphatase inhibitor cocktail (100×, Fude Biological), SuperNuclease (Beyotime), and a high-intensity RIPA lysis buffer (Thermo Fisher) and placed on ice for 30 minutes. After centrifugation, the cell debris precipitates were discarded, and the whole cell lysate supernatants were collected and transferred to new centrifuge tubes. After a BCA protein assay, samples were prepared using a 5× loading buffer (Thermo Fisher). […] Signals were detected using a MINICHEMI™ imaging system. […]
# [5] = In vivo pharmacokinetic study in rats (IV and PO); set-up: species or system rat (SD); details: rat; for bioavailability: plasma, PO 10 mg/kg (IV 2 mg/kg); for clearance rate relative to CC-90009 / half-life relative to CC-90009 / initial plasma concentration relative to CC-90009 / plasma drug exposure level relative to CC-90009: IV
# Protocol: Sample collection and preparation: After SPF SD rats (male, 210-230 g, 42-48 days, RILD Liver) in a good growth state were dosed intravenously at 2 mg/kg and orally at 10 mg/kg, blood samples were collected via the orbit at different blood collection time points and transferred to centrifuge tubes containing an anticoagulant; the intravenous blood collection time points were 0.08 hours, 0.25 hours, 0.5 hours, 1 hour, 2 hours, 4 hours, 6 hours, 8 hours, and 24 hours, and the oral blood collection time points were 0.25 hours, 0.5 hours, 1 hour, 2 hours, 4 hours, 6 hours, 8 hours, and 24 hours. The blood samples were immediately centrifuged at 4° C. and 8000 rpm for 10 minutes, and the plasma was collected and stored in an ultra-low-temperature freezer at −80° C. until it was analyzed by LC-MS/MS.
# Pharmacokinetic data analysis: Pharmacokinetic parameters of the compounds were calculated using pharmacokinetic software in a non-compartmental model. The peak plasma concentration (Cmax) and the time to reach the peak plasma concentration (Tmax) were taken as observation values. Parameters such as the half-life T1/2, the areas under the plasma concentration-time curve AUClast and AUCinf, the apparent volume of distribution Vss, and the clearance rate CL were determined through regression analysis of the linear terminal portion of the logarithmic plasma concentration-time curve and the linear trapezoidal rule.
# [6] = molecular target: T1, GSPT1; experiment: Time-dependent degradation of GSPT1 in AML cells (FIG. 2); format: cell-based; set-up: KG-1 cells (ATCC) were grown in an IMDM culture medium; endogenous in cells; host or cells: KG-1
# [7] = molecular target: T1, GSPT1; experiment: Degradation of GSPT1 in MV4-11 cells (FIG. 1C, 1D); format: cell-based; set-up: endogenous in cells; details: FIGS. 1 and 2
# [8] = tested on: KG-1 cells; experiment: Antiproliferative activity against KG-1 cells (CCK8, 72 h); format: cell-based; details: Homo sapiens
# Protocol: KG-1 cells in the logarithmic growth phase were diluted in a culture medium (RPMI+10% FBS) and plated onto 96-well plates at 5000 cells/well, and the plates were incubated in an incubator at 37° C. with 5% CO2 for 24 hours. 10 mM stock solutions of the test compounds of the present disclosure in DMSO were prepared and diluted with the culture medium to set 9 concentration gradients. Three replicate wells were set for each concentration. After compound addition, the plates were incubated in an incubator at 37° C. with 5% CO2 for 72 hours. The cell proliferation was assessed using the CCK8 method. The cell growth inhibition IC50 values of the compounds were determined using an enzyme labeling method. The IC50 values were calculated using GraphPad Prism 7 software.
# The antiproliferative activity of the compounds against KG-1 cells is shown in Table 2, where A represents IC50<1 nM, B represents 1<IC50<10 nM, C represents 10 nM≤IC50<100 nM, D represents 100 nM≤IC50<1000 nM, and E represents IC50≥1000 nM.
# [9] = Metabolic stability in in vitro rat liver microsomes; format: in vitro ADME; details: NADPH, 37° C.
# Description: RLMs were purchased from RILD Liver.
# [10] = 60 mg/kg once daily oral gavage
# T1 sequence (P15170 whole entry): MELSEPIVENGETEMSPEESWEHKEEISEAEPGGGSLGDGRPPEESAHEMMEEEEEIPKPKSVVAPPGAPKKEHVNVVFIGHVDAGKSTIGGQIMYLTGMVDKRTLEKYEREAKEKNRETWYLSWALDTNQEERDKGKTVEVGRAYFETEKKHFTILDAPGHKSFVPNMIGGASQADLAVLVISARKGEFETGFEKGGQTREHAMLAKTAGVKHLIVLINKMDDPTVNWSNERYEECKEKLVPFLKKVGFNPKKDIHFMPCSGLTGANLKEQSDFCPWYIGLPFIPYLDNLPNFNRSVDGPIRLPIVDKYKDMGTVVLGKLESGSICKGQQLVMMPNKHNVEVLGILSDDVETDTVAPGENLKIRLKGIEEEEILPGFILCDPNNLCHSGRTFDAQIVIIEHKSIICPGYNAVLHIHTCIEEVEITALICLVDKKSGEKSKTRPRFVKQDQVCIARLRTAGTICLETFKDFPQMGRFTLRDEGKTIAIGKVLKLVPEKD
plasma drug exposure level relative to CC-90009 ([5]; compared to CC-90009),SMILES,weight loss in mice [3],dependence of GSPT1 degradation on concentration and time [4],bioavailability [5],clearance rate relative to CC-90009 ([5]; compared to CC-90009),half-life relative to CC-90009 ([5]; compared to CC-90009),initial plasma concentration relative to CC-90009 ([5]; compared to CC-90009),"exposure level relative to CC-90009 ([5]; oral, compared to CC-90009)",dependence of GSPT1 degradation on concentration and time [7],further results
–,Cc1cc2c(cc1Cl)C=C(C(=O)NCc1ccc3c(c1)CN(C1CCC(=O)NC1=O)C3=O)CO2 (centres unmarked) [Compound A-28],–,–,–,–,–,–,–,–,IC50 [8]: 0.01 to 0.1 µM
greatly superior to those of CC-90009,"O=C1CCC(N2Cc3cc(CNC(=O)C4=Cc5ccccc5OC4)ccc3C2=O)C(=O)N1 (centres unmarked) [Compound A-1, N-((2-(2,6-Dioxopiperidin-3-yl)-1-oxoisoindolin-5-yl)methyl)-2H-chromene-3-carboxamide]",–,concentration-dependent and time-dependent; also recorded: more significant than that of CC-90009,19.3 ± 3.4%,less than that of the clinical drug CC-90009,close to that of CC-90009,greatly superior to those of CC-90009,–,concentration-dependent and time-dependent; also recorded: more significant than that of CC-90009,RLM CL [9]: 3.75 µL/min/mg; RLM T1/2 [9]: 6.1657 h
–,"O=C1CCC(N2Cc3cc(CNC(=O)C(F)(F)c4ccc(Cl)cc4)ccc3C2=O)C(=O)N1 (centres unmarked) [CC-90009, reference compound]",–,–,31.2 ± 9.1%,–,–,–,–,–,–
fourteen times,"O=C1CCC(N2Cc3c(ccc(CNC(=O)C4=Cc5cc(OC(F)(F)F)ccc5OC4)c3F)C2=O)C(=O)N1 (centres unmarked) [Compound A-42, N-((2-(2,6-Dioxopiperidin-3-yl)-4-fluoro-1-oxoisoindolin-5-yl)methyl)-6-(trifluoromethoxy)-2H-chromene-3-carboxamide]",no significant weight loss,–,9.8 ± 1.5%,lower clearance rate,–,–,four times,–,"in vivo anti-tumor effect compared to MRT-2359 ([2]; MV411 xenograft, 60 mg/kg oral gavage, vs MRT-2359): comparable to that of the clinical molecule MRT-2359"

SMILES,plasma drug exposure level relative to CC-90009 ([5]; compared to CC-90009),weight loss in mice [3],dependence of GSPT1 degradation on concentration and time [4],bioavailability [5],clearance rate relative to CC-90009 ([5]; compared to CC-90009),half-life relative to CC-90009 ([5]; compared to CC-90009),initial plasma concentration relative to CC-90009 ([5]; compared to CC-90009),"exposure level relative to CC-90009 ([5]; oral, compared to CC-90009)",dependence of GSPT1 degradation on concentration and time [7],further results
"O=C1CCC(N2Cc3cc(CNC(=O)C4=Cc5cc(OC(F)(F)F)ccc5OC4)ccc3C2=O)C(=O)N1 (centres unmarked) [Compound A-10, N-((2-(2,6-Dioxopiperidin-3-yl)-1-oxoisoindolin-5-yl)methyl)-6-trifluoromethoxy-2H-chromene-3-carboxamide]",nearly four times that of CC-90009,no significant weight loss,concentration-dependent,22.9 ± 12.6%,one third of that of CC-90009,longer than that of CC-90009,much higher than that of CC-90009,nearly three times that of CC-90009,concentration-dependent,"TGI [1, 10]: 95.10%; TGI compared to CC-90009 and enzalutamide ([1]; 22RV1 xenograft, 60 mg/kg oral gavage): significantly better than those of the clinical molecule CC-90009 and the commercially available drug enzalutamide; tumor weight TGI ([2]; 15 mg/kg once daily oral gavage): 20.82%; tumor weight TGI ([2]; 30 mg/kg once daily oral gavage): 56.61%; tumor weight TGI [2, 10]: 59.76%; in vivo anti-tumor effect compared to CC-90009 ([2]; MV411 xenograft, oral gavage, vs CC-90009): significantly better than that of the clinical molecule CC-90009; peak ([5]; oral, compared to CC-90009): relatively high peak; time to peak ([5]; oral, compared to CC-90009): relatively small time to peak; time-dependent degradation of GSPT1 [6]: time-dependent"
